The text below walks through data of patent US20060264460A1 (Wyeth, priority 2005, published 2006).

A word on the IC50: it is the midpoint of a concentration-inhibition curve. Read a high IC50 as lower potency.

For the first experiment, the target named is T1, human Cot/Tpl2 kinase (Homo sapiens, UniProt P41279).
T1 construct: human Cot/Tpl2 kinase construct encoding residues 30-398; 6His (N); made in house; host or cells: Sf9 insect cells, baculovirus system (BD Biosciences)
T1 sequence (P41279 30-398): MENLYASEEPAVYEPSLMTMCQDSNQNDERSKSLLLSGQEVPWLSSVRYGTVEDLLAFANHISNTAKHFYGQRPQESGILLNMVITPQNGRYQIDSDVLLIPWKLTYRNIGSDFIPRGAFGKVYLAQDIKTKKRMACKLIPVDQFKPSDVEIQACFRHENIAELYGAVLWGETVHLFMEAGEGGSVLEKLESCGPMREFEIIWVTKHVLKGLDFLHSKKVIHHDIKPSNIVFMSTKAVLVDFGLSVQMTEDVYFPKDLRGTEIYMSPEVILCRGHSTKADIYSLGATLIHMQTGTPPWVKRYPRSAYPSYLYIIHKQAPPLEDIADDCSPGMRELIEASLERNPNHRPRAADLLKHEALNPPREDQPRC
Kind of experiment: Tpl2/Cot kinase assay: GST-MEK1 phosphorylation detected by ELISA (DELFIA Eu). The experiment is classed as biochemical. Particulars: 0.4 nM Tpl2, 35 nM GST-MEK1, 50 uM ATP, 1 h at 30° C. In a few lines:
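His-tagged human Tpl2 from Sf9 cells, Ni-affinity and size-exclusion purified (monomer). 0.4 nM Tpl2 with 35 nM GST-MEK1, 50 uM ATP, MOPS pH 7.2, 1% DMSO, 1 h at 30° C; EDTA stop. MEK1 Ser217/221 phosphorylation detected by anti-phospho-MEK1 and Eu-labelled secondary ELISA; IC50 fitted.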
A general note: In an ELISA, binding on a coated surface is turned into a signal by an enzyme label.
The compound `N#Cc1cnc2c(Br)cc(NCc3ccccn3)cc2c1Nc1ccc(F)c(Cl)c1` [Example 78, 8-bromo-4-(3-chloro-4-fluorophenylamino)-6-(pyridin-2-ylmethylamino)quinoline-3-carbonitrile] gave an IC50 of 0.075 µM.
Still for that read-out and setting: the result for `Cc1ncn(CCN2CCOCC2)c1CNc1ccc2ncc(C#N)c(Nc3ccc(F)c(Cl)c3)c2c1` [Example 130, 4-(3-chloro-4-fluorophenylamino)-6-((4-methyl-1-(2-morpholinoethyl)-1H-imidazol-5-yl)methylamino)quinoline-3-carbonitrile] reads 0.26 µM.
`CN(C)CCNS(=O)(=O)c1ccc(CNc2ccc3ncc(C#N)c(Nc4ccc(F)c(Cl)c4)c3c2)cc1` [Example 123, 4-((4-(3-chloro-4-fluorophenylamino)-3-cyanoquinolin-6-ylamino)methyl)-N-(2-(dimethylamino)ethyl)benzenesulfonamide] yielded an IC50 of 0.54 µM.
Compound `N#Cc1cnc2c(Br)cc(NCc3cn(C4CCNCC4)nn3)cc2c1Nc1ccc(F)c(Cl)c1` [Example 316, 8-bromo-4-[(3-chloro-4-fluorophenyl)amino]-6-{[(1-piperidin-4-yl-1H-1,2,3-triazol-4-yl)methyl]amino}quinoline-3-carbonitrile] registered an IC50 of 0.01 µM.
On the same count and under the same terms, the result for `CS(=O)(=O)c1ccc(CNc2cc(Cl)c3ncc(C#N)c(Nc4ccc(F)c(Cl)c4)c3c2)cc1` [Example 184, 6-(4-(methylsulfonyl)benzylamino)-8-chloro-4-(3-chloro-4-fluorophenylamino)quinoline-3-carbonitrile] reads 0.11 µM.
Still for that read-out and setting: the result for `N#Cc1cnc2c(C(F)(F)F)cc(NCc3cccc[n+]3[O-])cc2c1Nc1ccc(F)c(Cl)c1` [Example 257, 4-[(3-chloro-4-fluorophenyl)amino]-6-{[(1-oxidopyridin-2-yl)methyl]amino}-8-(trifluoromethyl)quinoline-3-carbonitrile] reads 0.37 µM; that for `CN(C)C(=O)c1cc(NCC2CCCCC2)cc2c(Nc3ccc(F)c(Cl)c3)c(C#N)cnc12` [Example 82, 4-(3-chloro-4-fluorophenylamino)-3-cyano-6-(cyclohexylmethylamino)-N,N-dimethylquinoline-8-carboxamide], 3.9 µM.
Same read-out and setting: the result for `N#Cc1cnc2c(F)cc(NCc3cnc[nH]3)cc2c1Nc1ccc(F)c(Cl)c1` [Example 265, 4-[(3-Chloro-4-fluorophenyl)amino]-8-fluoro-6-[(1H-imidazol-5-ylmethyl)amino]quinoline-3-carbonitrile] reads 0.021 µM.
With `CN(C)c1ccc(CNc2ccc3ncc(C#N)c(Nc4ccc(F)c(Cl)c4)c3c2)c(Br)c1` [Example 56, 6-(2-Bromo-4-dimethylamino-benzylamino)-4-(3-chloro-4-fluoro-phenylamino)-quinoline-3-carbonitrile], half-maximal inhibition (IC50) was put at 3.4 µM.
As to `N#Cc1cnc2ccc(NC[C@H]3CCCN3)cc2c1Nc1ccc(F)c(Cl)c1` [Example 46, 4-(3-Chloro-4-fluoro-phenylamino)-6-[(D-pyrrolidin-2-ylmethyl)-amino]-quinoline-3-carbonitrile], the IC50 was found to be 30 µM.
`N#Cc1cnc2c(Cl)cc(NCc3c(CCCO)ncn3COCc3ccccc3)cc2c1Nc1ccc(F)c(Cl)c1` [Example 198, 6-({[1-[(benzyloxy)methyl]-4-(3-hydroxypropyl)-1H-imidazol-5-yl]methyl}amino)-8-chloro-4-[(3-chloro-4-fluorophenyl)amino]quinoline-3-carbonitrile] showed an IC50 of 0.87 µM.
On the same count and under the same terms, the value for `N#Cc1cnc2c(Cl)cc(NCc3ccc(C(F)(F)F)[n+]([O-])c3)cc2c1Nc1ccc(F)c(Cl)c1` [Example 275, 8-Chloro-4-[(3-chloro-4-fluorophenyl)amino]-6-({[1-oxido-6-(trifluoromethyl)pyridin-3-yl]methyl}amino)quinoline-3-carbonitrile] was 0.37 µM; that for `CN(C)C(=O)c1cc(NCc2cnc[nH]2)cc2c(Nc3ccc(F)c(Cl)c3)c(C#N)cnc12` [Example 87, 6-((1H-imidazol-5-yl)methylamino)-4-(3-chloro-4-fluorophenylamino)-3-cyano-N,N-dimethylquinoline-8-carboxamide] was 0.13 µM.
Take `N#Cc1cnc2ccc(NCc3c[nH]c(=O)[nH]c3=O)cc2c1Nc1ccc(F)c(Cl)c1` [Example 228, 4-[(3-chloro-4-fluorophenyl)amino]-6-{[(2,4-dioxo-1,2,3,4-tetrahydropyrimidin-5-yl)methyl]amino}quinoline-3-carbonitrile]: half-maximal inhibition (IC50) was put at 0.48 µM.

The experiment is the same for the next values; noted with them: Table 2; Tpl2/Cot kinase, GST-MEK1 substrate, 50 uM ATP.
`CC(C)(C)OC(=O)N1CCN(CCCn2cc(CNc3cc(Br)c4ncc(C#N)c(Nc5ccc(F)c(Cl)c5)c4c3)nn2)CC1` [Example 591]: 1.3 µM corresponded to half-maximal inhibition (IC50).
Same read-out and setting: the value for `N#Cc1cnc2c(Cl)cc(NCc3csnn3)cc2c1Nc1ccc(F)c(Cl)c1` [Example 440] was 0.049 µM.
With `CN(C)C(=O)CCn1cc(CNc2cc(Cl)c3ncc(C#N)c(Nc4ccc(F)c(Cl)c4)c3c2)nn1` [Example 614], inhibition was half-maximal at 0.01 µM (IC50).
The same measure, in the same setting: the value for `CC1CC(C)CN(CCCn2cc(CNc3cc(Cl)c4ncc(C#N)c(Nc5ccc(F)c(Cl)c5)c4c3)nn2)C1` (centres unmarked) [Example 610] was 0.15 µM; that for `N#Cc1cnc2c(Br)cc(NCc3cn(Cc4ccncc4)nn3)cc2c1Nc1ccc(F)c(Cl)c1` [Example 495] was 0.0048 µM.
Compound `CN1CCN(C(=O)CNc2cc(Cl)c3ncc(C#N)c(Nc4ccc(F)c(Cl)c4)c3c2)CC1` [Example 468] came in with an IC50 of 0.36 µM.
On the same count and under the same terms, the result for `N#Cc1cnc2c(Br)cc(NCc3cnc4ccccn34)cc2c1Nc1ccc(F)c(Cl)c1` [Example 526] reads 0.28 µM; that for `N#Cc1cnc2c(Br)cc(NCc3nc[nH]n3)cc2c1Nc1ccc(F)c(Cl)c1` [Example 484], 0.11 µM; that for `CN1CCC(Cn2cc(CNc3cc(Br)c4ncc(C#N)c(Nc5ccc(F)c(Cl)c5)c4c3)nn2)CC1` [Example 499], 0.012 µM.
`CN(C)C(=O)OCCCn1cc(CNc2cc(Cl)c3ncc(C#N)c(Nc4ccc(F)c(Cl)c4)c3c2)nn1` [Example 582] yielded an IC50 of 0.016 µM.
For `CN(C)Cc1cc(NCCN2CCOCC2)cc2c(Nc3cccc(Br)c3)c(C#N)cnc12` [Example 387], the IC50 is above 40 µM.
The same measure, in the same setting: the result for `CN(C)CCc1nc[nH]c1CNc1cc(Br)c2ncc(C#N)c(Nc3ccc(F)c(Cl)c3)c2c1` [Example 571] reads 0.24 µM.
The same measure, in the same setting: the result for `N#Cc1cnc2ccc(NCc3ccc(OCCN4CCOCC4)nc3)cc2c1Nc1ccc(F)c(F)c1` [Example 344] reads 1.48 µM; that for `N#Cc1cnc2c(Br)cc(NCc3cn(CC4CCNCC4)nn3)cc2c1Nc1ccc(F)c(Cl)c1` [Example 496], 0.047 µM.

Staying with this experiment, now noted: Tpl2/Cot kinase, GST-MEK1 substrate, 50 uM ATP.
With `CCN1CCCC(Nc2cc(Cl)c3ncc(C#N)c(Nc4ccc(F)c(Cl)c4)c3c2)C1` (centres unmarked) [Example 868], the IC50 worked out at 1.19 µM.
The same measure, in the same setting: the result for `CC(C)C(=O)NCCCn1cc(CNc2cc(Cl)c3ncc(C#N)c(Nc4ccc(F)c(Cl)c4)c3c2)nn1` [Example 911] reads 0.0024 µM; that for `N#Cc1cnc2c(Br)cc(NCc3cn(-c4ccncc4)nn3)cc2c1Nc1ccc(F)c(Cl)c1` [Example 729], 0.0055 µM.
Take `CC(C)(C)OC(=O)N1CCCN(CCCn2cc(CNc3cc(Cl)c4ncc(C#N)c(Nc5ccc(F)c(Cl)c5)c4c3)nn2)CC1` [Example 763]: it took 0.12 µM to reach half-maximal inhibition (IC50).
Still for that read-out and setting: the value for `CC(C)n1cnc(CNc2cc(Br)c3ncc(C#N)c(Nc4ccc(F)c(Cl)c4)c3c2)c1` [Example 804] was 0.068 µM; that for `N#Cc1cnc2c(Br)cc(NCC(=O)O)cc2c1Nc1ccc(F)c(Cl)c1` [Example 798] was 0.14 µM.
Still for that read-out and setting: the value for `CC(C)N1CCC(Nc2ccc3ncc(C#N)c(Nc4ccc(F)c(Cl)c4)c3c2)CC1` [Example 658] was 25.5 µM; that for `CN(C)CCCNC(=O)CNc1cc(Cl)c2ncc(C#N)c(Nc3ccc(F)c(Cl)c3)c2c1` [Example 775] was above 3 µM; that for `CSCCn1cc(CNc2cc(Br)c3ncc(C#N)c(Nc4ccc(F)c(Cl)c4)c3c2)nn1` [Example 682] was 0.082 µM.
As to `N#Cc1cnc2c(Cl)cc(NCCNC(=O)c3cccnc3)cc2c1Nc1ccc(F)c(Cl)c1` [Example 860], the IC50 is above 3 µM.
Still for that read-out and setting: the value for `N#Cc1cnc2c(Cl)cc(NCCNS(=O)(=O)c3ccccn3)cc2c1Nc1ccc(F)c(Cl)c1` [Example 856] was 0.82 µM; that for `CC(c1ccccc1)n1cc(CNc2cc(Cl)c3ncc(C#N)c(Nc4ccc(F)c(Cl)c4)c3c2)nn1` (centres unmarked) [Example 761] was 0.096 µM.

The experiment is the same for the next values; noted with them: Tpl2/Cot kinase, GST-MEK1 substrate, 50 uM ATP, 1 h at 30° C.; Table 2.
For `CCN1C2CCC1CC(n1cc(CNc3cc(Cl)c4ncc(C#N)c(Nc5ccc(F)c(Cl)c5)c4c3)nn1)C2` (centres unmarked) [Example 1005], 0.041 µM corresponded to half-maximal inhibition (IC50).
Same read-out and setting: the result for `CN1CCCC1CCn1cc(CNc2ccc3ncc(C#N)c(NC4CCCCC4)c3c2)nn1` (centres unmarked) [Example 967] reads 0.46 µM; that for `CCN1CCC(c2cc(CNc3cc(Br)c4ncc(C#N)c(Nc5ccc(F)c(Cl)c5)c4c3)[nH]n2)CC1` [Example 1045], 0.61 µM.
Same read-out and setting: the result for `CC(C)(C)OC(=O)N1C2CCC1CC(n1cc(CNc3cc(Cl)c4ncc(C#N)c(Nc5ccc(F)c(Cl)c5)c4c3)nn1)C2` (centres unmarked) [Example 1046] reads 0.3 µM.
Still for that read-out and setting: the value for `C[C@H](CNc1ccccn1)Nc1cc(Cl)c2ncc(C#N)c(Nc3ccc(F)c(Cl)c3)c2c1` [Example 933] was 1.99 µM; that for `N#Cc1cnc2c(Cl)cc(NCc3cn(Cc4cncc(C(O)(C(F)(F)F)C(F)(F)F)c4)nn3)cc2c1Nc1ccc(F)c(Cl)c1` [Example 1025] was 0.91 µM; that for `N#Cc1cnc2c(Cl)cc(NCc3cn(CCN4CCCCCC4)nn3)cc2c1Nc1ccc(Oc2ccccc2)cc1` [Example 988] was above 3 µM.
